Laboratory results: patent US6790652B1, “Method and apparatus for high density format screening for bioactive molecules” (BioImage A/S, priority 1998, dated 2004)
Like-named read-outs stand apart in the source and are kept apart here.

Experiments:
A10 smooth muscle cells [1] = details: read-out: EC50 for a mitochondrial depolarisation in these cells, known value; cited from earlier work
A10 smooth muscle cells [2] = details: for response of detector cells (JC-1 fluorescence): five-concentration grid
Protocol: Cells were grown to confluence on tissue culture treated polystyrene in DMEM 10% FCS, 100 μg/ml streptomycin and 100 IU/ml penicillin. […] FCCP. FCCP (Sigma) was printed onto a supported porous aluminium oxide filter (Anopore, Whatman International Ltd, Maidstone, Kent, UK) in a 5×5 spot grid, at a single concentration of 50 μM in DMSO, or as five rows of five spots (50, 5, […], 0.05 and 0.005 μM in DMSO) and allowed to dry. The volume of liquid in each spot was approximately 1 nanoliter. The A10 cells were loaded for 25 min in KRW supplemented with 10% FCS and 5 μM JC-1 (Molecular Probes Inc.) at 37° C. After three washes in KRW, the cells were placed on the stage of a Nikon Diaphot epifluorescence microscope and imaged using a 2× plan apochromatic objective and a CCD camera (Princeton Instruments, NY USA). The cells were excited by 450-490 nm light and light emitted from the cells was filtered by a dichroic mirror (505 nm) and an emission filter (510-560 nm). Exposure/ntegration times of 0.5 s were used and images acquired at 4 s intervals. At the time indicated as 0 in FIGS. 8 and 9 a filter with spots of FCCP in the patterns mentioned above was lowered down into the buffer overlying the cells and rapidly adjusted to a distance of about 300 μm above the cell layer and thereafter fixed in that position.

BHKhM1 cells = test: Fluo-3 calcium response of BHKhM1 cells on porous membrane lowered onto compound spots on glass; type: cell-based; details: approx. 10 nanoliters
Protocol: Ionomycin was printed onto a glass surface at two concentrations (10 mM and 1 mM), and thapsigargin was printed onto the surface at 1 mM. All spots were allowed to dry. The volume of liquid spotted was approx. 10 nanoliters per spot. At the time indicated as 0 s the still-wet membrane with the cells was lowered down onto the glass surface so that the membrane and the glass came in direct contact, thereby dissolving the compounds deposited in the spots.

| Structure (SMILES) | EC50 (A10 smooth muscle cells [1]) [nM] | response of detector cells (JC-1 fluorescence) (A10 smooth muscle cells [2]; spot concentration 0.005 μM in DMSO) | response of detector cells (JC-1 fluorescence) (A10 smooth muscle cells [2]; spot concentration 0.05 μM in DMSO) | response of detector cells (JC-1 fluorescence) (A10 smooth muscle cells [2]; spot concentration 0.5 μM in DMSO) | response of detector cells (JC-1 fluorescence) (A10 smooth muscle cells [2]; spot concentration 5 μM in DMSO) | response of detector cells (JC-1 fluorescence) (A10 smooth muscle cells [2]; spot concentration 50 μM in DMSO) | fluorescence intensity time profile (mitochondrial membrane depolarisation) (A10 smooth muscle cells [2]; spots of 50 μM in DMSO, 5×5 grid, single concentration) | lag phase before rise in fluorescence intensity (A10 smooth muscle cells [2]; spots of 50 μM in DMSO, approx. 1 nanoliter, five central spots) [s] | Fluo-3 fluorescence response (time profile) (BHKhM1 cells; spots printed at 1 mM) | Fluo-3 fluorescence response (onset, spatial size, intensity) (BHKhM1 cells; spots printed at 10 mM) | Fluo-3 fluorescence response (time profile) (BHKhM1 cells; spots printed at 10 mM) |
| --- | --- | --- | --- | --- | --- | --- | --- | --- | --- | --- | --- |
| N#CC(C#N)=NNc1ccc(OC(F)(F)F)cc1 [FCCP, carbonyl cyanide p-trifluoromethoxyphenylhydrazone] | ~8 | do not show detectable responses | do not show detectable responses | clearly give positive responses | clearly give positive responses | quickest response | steep rise in fluorescence intensity | 10 to 15 | – | – | – |
| C[C@H](CCC(=O)O)C[C@H](C)C[C@H](C)C(=O)/C=C(\O)[C@H](C)C[C@H](C)C/C=C/[C@@H](C)[C@@H](O)[C@@H](C)[C@@H](O)C[C@@H]1CC[C@@](C)([C@H]2CC[C@@](C)([C@@H](C)O)O2)O1 [Ionomycin, ionomycin] | – | – | – | – | – | – | – | – | sustained responses | earliest, spatially largest, and most intense response | sustained responses |
| C/C=C(/C)C(=O)O[C@H]1C(C)=C2[C@H]([C@@H]1OC(=O)CCCCCCC)[C@@](C)(OC(C)=O)C[C@H](OC(=O)CCC)[C@@]1(O)[C@H]2OC(=O)[C@@]1(C)O [thapsigargin] | – | – | – | – | – | – | – | – | transient and lower in intensity than that of either concentration of ionomycin | – | – |
